Measured values published in patent US20260115190A1, “DISPERSIONS OF ETRUMADENANT” (Arcus Biosciences, Inc., priority 2022, published 2026).
Like-named read-outs stand apart in the source and are kept apart here.

Experiments:
[1] = biological target: P-gp (Homo sapiens, UniProt P08183); experiment: In vitro transporter substrate data (P-gp); format: in vitro ADME
[2] = biological target: T1, breast cancer resistance protein (BCRP) (Homo sapiens, UniProt Q9UNQ0); experiment: In vitro transporter substrate data (BCRP); format: in vitro ADME
T1 sequence (Q9UNQ0 1-655): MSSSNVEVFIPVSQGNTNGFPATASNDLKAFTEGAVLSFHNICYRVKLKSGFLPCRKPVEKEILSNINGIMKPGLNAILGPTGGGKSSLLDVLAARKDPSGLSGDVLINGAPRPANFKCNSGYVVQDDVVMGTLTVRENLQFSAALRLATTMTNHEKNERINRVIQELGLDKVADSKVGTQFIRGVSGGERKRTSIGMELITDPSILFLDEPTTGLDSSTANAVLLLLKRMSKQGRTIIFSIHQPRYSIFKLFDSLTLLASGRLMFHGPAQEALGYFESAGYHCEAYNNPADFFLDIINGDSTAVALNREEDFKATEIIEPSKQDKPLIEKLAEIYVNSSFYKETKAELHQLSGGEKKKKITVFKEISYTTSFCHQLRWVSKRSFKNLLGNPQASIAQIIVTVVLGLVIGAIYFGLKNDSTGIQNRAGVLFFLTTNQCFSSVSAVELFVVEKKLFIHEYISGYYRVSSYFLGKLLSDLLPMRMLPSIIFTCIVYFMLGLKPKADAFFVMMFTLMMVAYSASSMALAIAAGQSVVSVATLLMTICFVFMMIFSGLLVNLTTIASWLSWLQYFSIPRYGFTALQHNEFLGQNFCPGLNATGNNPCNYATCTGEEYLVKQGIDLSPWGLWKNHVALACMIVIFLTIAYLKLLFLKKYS

[3] = IV reference AUClast in beagle dogs; settings: dog, in vivo, IV at 5 mg/kg
[4] = Drug-drug interaction study with itraconazole; format: in vivo, humans; settings: for CL/F / Kel / Vd/F / half-life: arithmetic mean ± SD; for AUC % ex / AUC from 0 to 24 h (AUC0-24) / AUC(0-t) / AUC(0-inf) / Cmax: geometric mean; for AUC from 0 to 24 h (AUC0-24) / AUC(0-t) / Vd/F / half-life / AUC(0-inf) / Cmax / Tmax: both sexes, human, plasma, oral; for Vd/F: read-out: Vz/F; for half-life: read-out: t½ (converted); for Tmax: median
Protocol: An open-label, fixed-sequence, 2-period drug-drug interaction (DDI) study was designed to evaluate the effect of multiple doses of a strong inhibitor of CYP3A4 and P-gp on the single-dose PK of etrumadenant in humans. Etrumadenant was supplied as 25 mg capsules. Itraconazole was used as the representative strong inhibitor of CYP3A4 and P-gp. It was supplied as 10 mg/mL oral solution, Sporanox® by Janssen Pharmaceuticals (or generic equivalent). Twenty (20) healthy, adult male and female (of non-childbearing potential) participants were enrolled. Screening of participants occurred within 28 days prior to the first dosing.
On Day 1 of Period 1, a single 150 mg dose of etrumadenant was orally administered under fasting conditions (i.e., at least 10 hours of fasting prior to dosing and at least 4 hours postdose). PK sampling for etrumadenant and its metabolites was taken predose and up to 120 hours postdose. There was a washout of 5 days between the etrumadenant dose in Period 1 and the first itraconazole dose in Period 2.
In Period 2, 200 mg itraconazole was orally administered twice a day (BID) on Day 1 and once a day (QD) for 9 consecutive days (on Days 2 through 10) with a single 150 mg dose of etrumadenant orally administered 1 hour after itraconazole dosing on Day 6. Itraconazole was administered under fasting conditions. On Day 6, participants fasted for at least 10 hours prior to and at least 4 hours post etrumadenant dosing. PK sampling for etrumadenant and its metabolites was taken predose and up to 120 hours after etrumadenant dosing. PK sampling for itraconazole and 1-hydroxy-itraconazole was collected on Days 5, 6, 7, 9, and 11.
Itraconazole was administered twice on the first day of Period 2 as a loading dose to accelerate CYP3A inhibition and the inhibition was then maintained by administering itraconazole 200 mg QD for 9 consecutive days. A 200 mg BID dose level is expected to provide similar inhibition to a 400 mg QD dose. Although itraconazole reaches steady state within approximately 15 days, it has been established that QD administration of 200 mg itraconazole for 3 to 5 days allows maximum CYP3A inhibition sufficient to detect a DDI. […] As such, administration of itraconazole for at least 4 days is considered sufficient in DDI studies as a CYP3A4 and P-gp inhibitor. To maintain the level of inhibition, itraconazole was administered throughout PK sampling of etrumadenant (i.e., through Day 10 of Period 2). In addition, the itraconazole oral solution was administered under fasting conditions to maximize bioavailability.
Participants were housed on Day −1 of Period 1, at the time indicated by the clinical research unit (CRU), until after the 120-hour blood draw and completion of study procedures in Period 2. Safety was monitored throughout the study by repeated clinical and laboratory evaluations. In this study, there were no discontinued participants. All participants who received at least one dose of study drug (including participants who terminated the study early) were asked to return to the CRU approximately 14 days after the last dose for follow-up procedures, and to determine if any adverse event (AE) had occurred since the last study visit. All adverse events reported in the study were mild and resolved without treatment.

[5] = biological target: A2AR (Homo sapiens, UniProt P29274); settings: antagonist; has been reported; cited from earlier work
[6] = biological target: T2, A2BR (Homo sapiens, UniProt P29275); settings: antagonist; has been reported; cited from earlier work
T2 sequence (P29275 1-332): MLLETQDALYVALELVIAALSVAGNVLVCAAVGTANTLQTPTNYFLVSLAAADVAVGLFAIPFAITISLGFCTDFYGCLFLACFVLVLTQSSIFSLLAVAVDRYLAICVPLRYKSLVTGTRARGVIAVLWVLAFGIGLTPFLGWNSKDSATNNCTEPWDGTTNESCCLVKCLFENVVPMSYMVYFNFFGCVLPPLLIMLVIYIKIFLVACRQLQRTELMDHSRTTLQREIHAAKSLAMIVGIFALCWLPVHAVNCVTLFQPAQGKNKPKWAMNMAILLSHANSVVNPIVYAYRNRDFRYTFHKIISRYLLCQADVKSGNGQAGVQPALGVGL

[7] = Etrumadenant 150 mg + Itraconazole
[8] = multiple doses of itraconazole compared to etrumadenant given alone

P-gp, sequence (P08183 whole entry): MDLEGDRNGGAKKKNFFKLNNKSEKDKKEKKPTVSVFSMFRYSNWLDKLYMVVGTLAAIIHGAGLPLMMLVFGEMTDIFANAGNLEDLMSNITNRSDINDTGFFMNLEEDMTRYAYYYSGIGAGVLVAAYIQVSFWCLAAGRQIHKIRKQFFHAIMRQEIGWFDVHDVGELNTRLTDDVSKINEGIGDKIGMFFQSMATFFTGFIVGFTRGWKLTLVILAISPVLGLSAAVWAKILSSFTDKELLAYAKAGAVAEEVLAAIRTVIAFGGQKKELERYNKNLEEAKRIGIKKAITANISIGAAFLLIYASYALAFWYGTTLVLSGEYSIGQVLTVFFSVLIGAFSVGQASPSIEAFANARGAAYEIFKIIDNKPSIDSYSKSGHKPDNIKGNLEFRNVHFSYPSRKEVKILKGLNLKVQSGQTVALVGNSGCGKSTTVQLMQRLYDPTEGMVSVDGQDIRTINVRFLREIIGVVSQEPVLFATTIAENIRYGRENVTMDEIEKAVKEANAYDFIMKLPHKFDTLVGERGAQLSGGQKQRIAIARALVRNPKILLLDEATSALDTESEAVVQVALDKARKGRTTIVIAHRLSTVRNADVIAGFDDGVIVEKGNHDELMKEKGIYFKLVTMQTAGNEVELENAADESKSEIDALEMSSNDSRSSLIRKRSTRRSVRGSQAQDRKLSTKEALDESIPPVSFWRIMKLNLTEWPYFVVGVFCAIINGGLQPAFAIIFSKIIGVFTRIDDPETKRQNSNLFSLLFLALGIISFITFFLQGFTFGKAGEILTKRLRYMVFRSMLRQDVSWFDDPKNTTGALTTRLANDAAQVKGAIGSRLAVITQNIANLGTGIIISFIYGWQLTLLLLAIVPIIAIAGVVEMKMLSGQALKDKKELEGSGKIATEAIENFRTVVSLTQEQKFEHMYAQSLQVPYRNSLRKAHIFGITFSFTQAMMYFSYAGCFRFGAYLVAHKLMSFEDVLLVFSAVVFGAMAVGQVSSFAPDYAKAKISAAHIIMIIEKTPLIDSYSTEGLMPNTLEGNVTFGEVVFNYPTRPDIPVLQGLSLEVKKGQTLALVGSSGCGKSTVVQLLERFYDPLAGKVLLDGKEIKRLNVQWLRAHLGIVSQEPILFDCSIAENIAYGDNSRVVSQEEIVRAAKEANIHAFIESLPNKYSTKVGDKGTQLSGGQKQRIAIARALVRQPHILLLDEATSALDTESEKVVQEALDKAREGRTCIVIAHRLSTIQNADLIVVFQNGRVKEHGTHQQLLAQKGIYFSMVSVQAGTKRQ
A2AR, sequence (P29274 whole entry): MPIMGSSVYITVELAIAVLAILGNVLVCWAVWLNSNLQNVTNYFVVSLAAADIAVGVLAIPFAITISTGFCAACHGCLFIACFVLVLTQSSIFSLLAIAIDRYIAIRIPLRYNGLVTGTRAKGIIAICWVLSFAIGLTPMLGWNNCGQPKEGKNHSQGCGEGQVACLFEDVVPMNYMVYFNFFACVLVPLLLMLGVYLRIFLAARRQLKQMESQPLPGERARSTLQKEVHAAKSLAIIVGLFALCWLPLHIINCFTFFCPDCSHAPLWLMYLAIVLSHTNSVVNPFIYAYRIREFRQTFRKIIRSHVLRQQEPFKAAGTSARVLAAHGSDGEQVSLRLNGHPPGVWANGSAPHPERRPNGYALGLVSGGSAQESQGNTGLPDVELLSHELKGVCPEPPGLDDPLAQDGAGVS

- substrate of P-gp [1]: substrate
- substrate of breast cancer resistance protein (BCRP) [2]: substrate
- AUC(0-t) [3]: 25100 ng·h/mL
- CL/F [4, 7]: 2.52 ± 0.842 L/h
- Kel [4, 7]: 0.0255 ± 0.00605 h⁻¹
- AUC % ex [4, 7]: 4.39%
- CL/F ([4]; Etrumadenant Alone, 150 mg): 4.00 ± 1.12 L/h
- Kel ([4]; Etrumadenant Alone, 150 mg): 0.0249 ± 0.00663 h⁻¹
- AUC % ex ([4]; Etrumadenant Alone, 150 mg): 3.90%
- AUC from 0 to 24 h (AUC0-24) ([4]; 150 mg, Etrumadenant Alone, 150 mg (6 × 25 mg capsules), fasting): 21600 ng·h/mL
- AUC(0-t) ([4]; 150 mg, Etrumadenant Alone): 36500 ng·h/mL
- AUC from 0 to 24 h (AUC0-24) ([4]; Etrumadenant 150 mg + Itraconazole 200 mg multiple doses): 30700 ng·h/mL
- Vd/F [4, 7]: 100 ± 28.3 L
- half-life [4, 7]: 28.7 ± 7.01 h
- AUC(0-inf) [4, 7]: 62600 ng·h/mL
- AUC(0-t) [4, 7]: 59400 ng·h/mL
- Cmax [4, 7]: 3530 ng/mL
- Tmax [4, 7]: 1.52 h
- Vd/F ([4]; Etrumadenant Alone, 150 mg): 172 ± 64.8 L
- half-life ([4]; Etrumadenant Alone, 150 mg): 29.9 ± 8.88 h
- AUC(0-inf) ([4]; Etrumadenant Alone, 150 mg): 38600 ng·h/mL
- Cmax ([4]; Etrumadenant Alone, 150 mg): 3000 ng/mL
- Tmax ([4]; Etrumadenant Alone, 150 mg): 1.38 h
- increase in etrumadenant AUCinf [4, 8]: ~62%
- increase in etrumadenant AUClast [4, 8]: approximately 63%
- increase in etrumadenant Cmax [4, 8]: ~18%
Structure (SMILES): Cc1c(C#N)cccc1-c1cc(-c2cn(Cc3cccc(C(C)(C)O)n3)nn2)nc(N)n1 [Etrumadenant, 3-[2-amino-6-(1-{[6-(2-hydroxypropan-2-yl)pyridine-2-yl]methyl}-1H-1,2,3-triazol-4-yl)pyrimidin-4-yl]-2-methylbenzonitrile]
- potency on A2AR [5]: less than 10 nM
- potency on A2BR [6]: less than 10 nM
